Test results from US9644181B2, “Cell preparation containing myocardium-committed cell” (RIKEN, priority 2012, dated 2017).

Key:
[1] = tested on: adipose-tissue-derived multi-lineage/multi-potent progenitor cells (ADMPC); assay: Induction of the expression of myocardium-committed-cell markers in ADMPC, concentration series (TaqMan PCR, GAPDH ratios); type: cell-based, human
Experimental: (§1) Adipose tissues were provided by subjects from whom informed consent had been obtained by suction surgery from subcutaneous tissues. Neither steroid agent nor TZD had been administered to any of the subjects. Adipose tissues were cut into small pieces. Next, digestion was performed for 1 hour with shaking in 0.067% collagenase (Roche applied science)-containing Hanks' Balanced Salt Solution (HBSS) in a water bath at 37° C. The digested products were filtered through a Cell Strainer (BD Bioscience) and then centrifuged at 800 g for 10 minutes. Erythrocytes were removed by a specific gravity method using Lymphoprep (d=1.077) (Nycomed). The thus obtained Stromal Vascular Fraction (cells) was seeded into DMEM containing 10% fetal calf serum (Life Technologies). Cells were cultured for 24 hours so that they would adhere. After washing, the resultant was treated with EDTA, and ADMPC were thereby obtained. Next, ADMPC were seeded on a human-fibronectin-coated dish in medium I: 60% DMEM-low glucose, 40% MCDB201, […], 1 nM dexamethasone, 100 μM ascorbic acid, and 5% FBS at a density of 10,000 cells/cm^2, passaged 3 to 5 times, and then used for experiments.
(§2) Total RNA was isolated from the thus obtained cells using an RNeasy mini kit (Qiagen) according to protocols recommended by the manufacturer. Total RNA (500 ng) was subjected to DNase treatment, and then cDNA was synthesized using Superscript III reverse transcriptase RNase H (-) (Life Technologies).
(§3) Subsequently, TaqMan Universal PCR Master Mix (Applied Biosystems) (10 μl) and TaqMan Gene Expression Assays (Applied Biosystems) (1 μl) were added to the thus prepared cDNA (9 μl). Real-time PCR was performed using an Applied Biosystems 7900 Fast Real-Time PCR system under the following conditions: denaturation at 95° C. for 10 minutes and 40 cycles of 95° C. for 15 seconds and 60° C. for 1 minute. TaqMan probes and assay IDs (available from GenBank/NCBI (U.S.A.)) used for Islet-1, Nkx2.5, GATA-4, α-CA, cardiac troponin I, MLC, MHC, and GAPDH are listed in Table 1 below.
ADMPC passaged 4 times by plate culture were detached and washed with TrypLE Select (Life Technologies; the same applies hereafter) and were suspended at a concentration of 1×10^5/mL in Knockout-DMEM (Life Technologies; […], Ltd. (Japan); the same applies hereafter) and 20% KSR (Knockout Serum Replacement; Life Technologies; the same applies hereafter). 10 mL of cells was seeded on an EZ-Sphere low-adhesion culture dish (diameter: 10 cm, AGC; the same applies hereafter), and then suspension culture was performed. After 24 hours, cells were collected, quantitative analysis of expression was performed by TaqMan PCR, and then GAPDH ratios were calculated.

[2] = tested on: adipose-tissue-derived multi-lineage/multi-potent progenitor cells (ADMPC); conditions: FIG. 1
Experimental: as §1
Total RNA was isolated from the thus obtained cells using an RNeasy mini kit (Qiagen) according to protocols recommended by the manufacturer. […]

[3] = tested on: adipose-tissue-derived multi-lineage/multi-potent progenitor cells (ADMPC); assay: Comparison of the induction of the expression of various markers by spermine and DMSO; type: cell-based, human
Experimental: as §1, §2, §3
ADMPC passaged 4 times by plate culture were detached and washed with TrypLE Select (Life Technologies; the same applies hereafter) and were suspended at a concentration of 1×10^5/mL in Knockout-DMEM (Life Technologies; the same applies hereafter) supplemented with 0, 5, 25, 50, 100, 200, or 500 μM or 1 mM spermine (Wako Pure Chemical Industries, Ltd. (Japan); the same applies hereafter) and 20% KSR (Knockout Serum Replacement; Life Technologies; the same applies hereafter). 10 mL of cells was seeded on an EZ-Sphere low-adhesion culture dish (diameter: 10 cm, AGC; the same applies hereafter), and then suspension culture was performed. […]

In the case of `NCCCCNCCCN` [spermidine], the “expression of isl-1, nkx2.5 and GATA-4” value ([1]; spermidine 0, 5, 25, 50, 100, 200, 500 μM or 1 mM, suspension culture 24 hours) is reported as “expression was confirmed” and the “concentration at which all markers (isl-1, nkx2.5, GATA-4) exhibited the highest expression levels” value ([1]; spermidine series 0-1 mM, 24 hours) is reported as 200 µM.

`NCCCNCCCCNCCCN` [Spermine, spermine] was tested, and the “expression of isl-1, nkx2.5, GATA-4, α-CA, cardiac troponin I and MHC” value ([1]; spermine 0, 5, 25, 50, 100, 200, 500 μM or 1 mM, suspension culture 24 hours) was “expression was confirmed”, the “concentration at which all markers exhibited the highest expression levels” value ([1]; spermine series 0-1 mM, 24 hours) was 100 µM and the “effect of presence or absence of growth factors (EGF, bFGF) on the expression levels” value ([2]; 100 μM spermine) was “did not significantly affect”. The “expression of isl-1, nkx2.5, GATA-4, α-CA, cardiac troponin I, MHC and MLC” value ([2]; 100 μM, 24, 72 and 120 hours) was “Expression was confirmed”, the “expression levels of all markers, treatment with spermine compared with treatment with DMSO” value ([3]; 100 μM spermine 24, 72, 120 hours vs 0.1% DMSO 48 hours) was “several to several hundred times greater” and the “Cardiac troponin I/DMSO ratio” value ([3]; 100 μM, 1 day culture) was 7.91. The “Cardiac α-actin/DMSO ratio” value ([3]; 100 μM, 1 day culture) was 192.84, the GATA4/DMSO ratio ([3]; 100 μM, 1 day culture) was 3.75 and the Isl1/DMSO ratio ([3]; 100 μM, 1 day culture) was 6.79. The MHC/DMSO ratio ([3]; 100 μM, 1 day culture) was 2.31 × 10^−6, the MLC/DMSO ratio ([3]; 100 μM, 1 day culture) was 0.67 and the Nkx2.5/DMSO ratio ([3]; 100 μM, 1 day culture) was 3.58. For the same compound, the “Cardiac troponin I/DMSO ratio” value ([3]; 100 μM, 3 days culture) was 25.16, the “Cardiac α-actin/DMSO ratio” value ([3]; 100 μM, 3 days culture) was 169.75 and the GATA4/DMSO ratio ([3]; 100 μM, 3 days culture) was 8.19. The Isl1/DMSO ratio ([3]; 100 μM, 3 days culture) was 10.44, the MHC/DMSO ratio ([3]; 100 μM, 3 days culture) was 3.74 × 10^−5 and the MLC/DMSO ratio ([3]; 100 μM, 3 days culture) was 0.88. For the same compound, the Nkx2.5/DMSO ratio ([3]; 100 μM, 3 days culture) was 5.19, the “Cardiac troponin I/DMSO ratio” value ([3]; 100 μM, 5 days culture) was 11.87 and the “Cardiac α-actin/DMSO ratio” value ([3]; 100 μM, 5 days culture) was 42.85. The GATA4/DMSO ratio ([3]; 100 μM, 5 days culture) was 12.15, the Isl1/DMSO ratio ([3]; 100 μM, 5 days culture) was 3.49 and the MHC/DMSO ratio ([3]; 100 μM, 5 days culture) was 7.67 × 10^−6. It also gave an MLC/DMSO ratio ([3]; 100 μM, 5 days culture) of 0.45 and a Nkx2.5/DMSO ratio ([3]; 100 μM, 5 days culture) of 7.47.

In the case of `C[S+](C)[O-]` [DMSO], the “Cardiac troponin I/DMSO ratio” value ([3]; 0.1% in medium, 48 hours) is reported as 1, the “Cardiac α-actin/DMSO ratio” value ([3]; 0.1% in medium, 48 hours) is reported as 1 and the GATA4/DMSO ratio ([3]; 0.1% in medium, 48 hours) is reported as 1. For the same compound, the Isl1/DMSO ratio ([3]; 0.1% in medium, 48 hours) was 1, the MHC/DMSO ratio ([3]; 0.1% in medium, 48 hours) was “Not detected” and the MLC/DMSO ratio ([3]; 0.1% in medium, 48 hours) was 1. It also gave a Nkx2.5/DMSO ratio ([3]; 0.1% in medium, 48 hours) of 1.
